Test results as given in patent US5968965A, “Inhibitors of farnesyl-protein transferase” (Merck & Co., Inc., priority 1997, dated 1999).
Counter-ions that a name gives are not always drawn.

Molecular target: T1, human FPTase (Homo sapiens, UniProt P49354+P49356)
T1 construct: made in house
Assay: In vitro inhibition of Ras farnesyl transferase (human FPTase)
Type: biochemical
Conditions: [3H]-FPP incorporation, 100 nM Ras-CVIM, 30 min; read-out: IC50 against human FPTase

IC50: < 10 µM
Compound: N#Cc1ccc(Cn2cncc2CCC(=O)Nc2cccc(Cl)c2)cc1 [Example 1, N-(3-chlorophenyl)-3-[1-(4-cyanobenzyl)-5-imidazolyl]propionamide hydrochloride]
